Experimental data reported in ChEMBL document CHEMBL1201862, “PubChem BioAssay data set” (2004).
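Assay format: 96-well plates, 48-hour exposure. At the GI50, growth is halved.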 Activity calls are given as the source filed them. No stated cut-off is given here; in the data, active = GI50 up to about 1.1 µM and inactive = higher.

Columns and labels:
Experiment in all cases: NCI tumour cell line growth inhibition, 48 h
SF-539 = test system: SF-539
HCT-116 = test system: HCT-116
MDA-MB-435 = test system: MDA-MB-435
COLO 205 = test system: COLO 205
A498 = test system: A498
MDA-MB-231 = test system: MDA-MB-231
A549 = test system: A549
IGROV-1 = test system: IGROV-1
SK-MEL-2 = test system: SK-MEL-2
SK-MEL-5 = test system: SK-MEL-5
HL-60 = test system: HL-60
MDA-N = test system: MDA-N
MCF7 = test system: MCF7
EKVX = test system: EKVX
OVCAR-3 = test system: OVCAR-3
DU-145 = test system: DU-145
U-251 = test system: U-251
OVCAR-5 = test system: OVCAR-5
NCI-H460 = test system: NCI-H460
UACC-62 = test system: UACC-62
BT-549 = test system: BT-549
SW-620 = test system: SW-620
UACC-257 = test system: UACC-257
PC-3 = test system: PC-3
NCI-H226 = test system: NCI-H226
RXF 393 = test system: RXF 393
SF-268 = test system: SF-268
NCI-H522 = test system: NCI-H522
MOLT-4 = test system: MOLT-4
KM12 = test system: KM12
HOP-92 = test system: HOP-92
NCI-H23 = test system: NCI-H23
HCT-15 = test system: HCT-15
RPMI-8226 = test system: RPMI-8226
OVCAR-4 = test system: OVCAR-4
CAKI-1 = test system: CAKI-1
Malme-3M = test system: Malme-3M
K562 = test system: K562
OVCAR-8 = test system: OVCAR-8
NCI/ADR-RES = test system: NCI/ADR-RES
SR = test system: SR
SF-295 = test system: SF-295
SK-MEL-28 = test system: SK-MEL-28
TK-10 = test system: TK-10
SNB-75 = test system: SNB-75
M14 = test system: M14
Hs-578T = test system: Hs-578T
T47D = test system: T47D
786-0 = test system: 786-0
HOP-62 = test system: HOP-62
SN12C = test system: SN12C
CCRF-CEM = test system: CCRF-CEM
LOX IMVI = test system: LOX IMVI
SK-OV-3 = test system: SK-OV-3
SNB-19 = test system: SNB-19
HT-29 = test system: HT-29
ACHN = test system: ACHN
HCC 2998 = test system: HCC 2998
UO-31 = test system: UO-31

For `C1CCN(CCC2CCCCN2)CC1` (configuration not stated), the GI50 (SF-539) was > 100 µM (inactive), the GI50 (HCT-116) was > 100 µM (inactive) and the GI50 (MDA-MB-435) was > 100 µM (inactive). The GI50 (COLO 205) was > 100 µM (inactive), the GI50 (A498) was > 100 µM (inactive) and the GI50 (MDA-MB-231) was > 100 µM (inactive). The GI50 (A549) was > 100 µM (inactive), the GI50 (IGROV-1) was > 100 µM (inactive) and the GI50 (SK-MEL-2) was > 100 µM (inactive). The GI50 (SK-MEL-5) was > 100 µM (inactive), the GI50 (HL-60) was > 100 µM (inactive) and the GI50 (MDA-N) was > 100 µM (inactive). The GI50 (MCF7) was > 100 µM (inactive), the GI50 (EKVX) was > 100 µM (inactive) and the GI50 (OVCAR-3) was > 100 µM (inactive). For the same molecule, the GI50 (DU-145) was > 100 µM (inactive), the GI50 (U-251) was > 100 µM (inactive) and the GI50 (OVCAR-5) was > 100 µM (inactive). For the same molecule, the GI50 (NCI-H460) was 55 µM (inactive), the GI50 (UACC-62) was > 100 µM (inactive) and the GI50 (BT-549) was > 100 µM (inactive). The GI50 (SW-620) was > 100 µM (inactive), the GI50 (UACC-257) was > 100 µM (inactive) and the GI50 (PC-3) was > 100 µM (inactive). For the same molecule, the GI50 (NCI-H226) was > 100 µM (inactive), the GI50 (RXF 393) was > 100 µM (inactive) and the GI50 (SF-268) was > 100 µM (inactive). The GI50 (NCI-H522) was > 100 µM (inactive), the GI50 (MOLT-4) was > 100 µM (inactive) and the GI50 (KM12) was > 100 µM (inactive). The GI50 (HOP-92) was > 100 µM (inactive), the GI50 (NCI-H23) was > 100 µM (inactive) and the GI50 (HCT-15) was greater than 100 µM. For the same molecule, the GI50 (RPMI-8226) was > 100 µM (inactive), the GI50 (OVCAR-4) was > 100 µM (inactive) and the GI50 (CAKI-1) was > 100 µM (inactive). The GI50 (Malme-3M) was > 100 µM (inactive), the GI50 (K562) was > 100 µM (inactive) and the GI50 (OVCAR-8) was > 100 µM (inactive). The GI50 (NCI/ADR-RES) was > 100 µM (inactive), the GI50 (SR) was > 100 µM (inactive) and the GI50 (SF-295) was > 100 µM (inactive). For the same molecule, the GI50 (SK-MEL-28) was > 100 µM (inactive), the GI50 (TK-10) was > 100 µM (inactive) and the GI50 (SNB-75) was > 100 µM (inactive). For the same molecule, the GI50 (M14) was > 100 µM (inactive), the GI50 (Hs-578T) was > 100 µM (inactive) and the GI50 (T47D) was > 100 µM (inactive). The GI50 (786-0) was > 100 µM (inactive), the GI50 (HOP-62) was > 100 µM (inactive) and the GI50 (SN12C) was > 100 µM (inactive). For the same molecule, the GI50 (CCRF-CEM) was > 100 µM (inactive), the GI50 (LOX IMVI) was > 100 µM (inactive) and the GI50 (SK-OV-3) was > 100 µM (inactive). The GI50 (SNB-19) was > 100 µM (inactive), the GI50 (HT-29) was > 100 µM (inactive) and the GI50 (ACHN) was > 100 µM (inactive).

With `COc1ccc(/C=C2\N=C(N3CCOCC3)NC2=O)cc1` the GI50 (SF-539) was > 100 µM (inactive), the GI50 (HCT-116) was > 100 µM (inactive) and the GI50 (MDA-MB-435) was > 100 µM (inactive). For the same molecule, the GI50 (COLO 205) was > 100 µM (inactive), the GI50 (MDA-MB-231) was > 100 µM (inactive) and the GI50 (A549) was > 100 µM (inactive). The GI50 (IGROV-1) was > 100 µM (inactive), the GI50 (SK-MEL-2) was > 100 µM (inactive) and the GI50 (HL-60) was > 100 µM (inactive). The GI50 (MDA-N) was > 100 µM (inactive), the GI50 (MCF7) was > 100 µM (inactive) and the GI50 (EKVX) was > 100 µM (inactive). For the same molecule, the GI50 (OVCAR-3) was > 100 µM (inactive), the GI50 (DU-145) was > 100 µM (inactive) and the GI50 (U-251) was > 100 µM (inactive). For the same molecule, the GI50 (OVCAR-5) was > 100 µM (inactive), the GI50 (UACC-62) was > 100 µM (inactive) and the GI50 (BT-549) was > 100 µM (inactive). For the same molecule, the GI50 (SW-620) was > 100 µM (inactive), the GI50 (UACC-257) was > 100 µM (inactive) and the GI50 (PC-3) was > 100 µM (inactive). For the same molecule, the GI50 (NCI-H226) was > 100 µM (inactive), the GI50 (RXF 393) was > 100 µM (inactive) and the GI50 (SF-268) was > 100 µM (inactive). For the same molecule, the GI50 (NCI-H522) was > 100 µM (inactive), the GI50 (MOLT-4) was > 100 µM (inactive) and the GI50 (HCC 2998) was > 100 µM (inactive). For the same molecule, the GI50 (KM12) was > 100 µM (inactive), the GI50 (HOP-92) was > 100 µM (inactive) and the GI50 (NCI-H23) was > 100 µM (inactive). For the same molecule, the GI50 (HCT-15) was greater than 100 µM, the GI50 (RPMI-8226) was > 100 µM (inactive) and the GI50 (OVCAR-4) was > 100 µM (inactive). The GI50 (CAKI-1) was > 100 µM (inactive), the GI50 (UO-31) was > 100 µM (inactive) and the GI50 (Malme-3M) was > 100 µM (inactive). The GI50 (OVCAR-8) was > 100 µM (inactive), the GI50 (NCI/ADR-RES) was > 100 µM (inactive) and the GI50 (SR) was > 100 µM (inactive). For the same molecule, the GI50 (SF-295) was > 100 µM (inactive), the GI50 (SK-MEL-28) was > 100 µM (inactive) and the GI50 (TK-10) was > 100 µM (inactive). For the same molecule, the GI50 (SNB-75) was 58.3 µM (inactive), the GI50 (M14) was > 100 µM (inactive) and the GI50 (Hs-578T) was > 100 µM (inactive). The GI50 (T47D) was > 100 µM (inactive), the GI50 (786-0) was > 100 µM (inactive) and the GI50 (HOP-62) was > 100 µM (inactive). The GI50 (SN12C) was > 100 µM (inactive), the GI50 (CCRF-CEM) was > 100 µM (inactive) and the GI50 (LOX IMVI) was > 100 µM (inactive). For the same molecule, the GI50 (SK-OV-3) was > 100 µM (inactive), the GI50 (SNB-19) was > 100 µM (inactive) and the GI50 (HT-29) was > 100 µM (inactive). The GI50 (ACHN) was > 100 µM (inactive).
